pIC50: −log10 of the molar value.
Key:
CDK2/CycE = biological target: T1, CDK2/CycE (Homo sapiens, UniProt P24941); assay: CDK2/CycE kinase assay (TR-FRET, 2 mM ATP); assay type: biochemical; conditions: 2 mM ATP (high ATP); median; read-out: CDK2/CyclinE, 2 mM ATP (high ATP), IC50 (median)
T1 construct: purchased ProQinase GmbH (Freiburg, Germany); host or cells: insect cells (Sf9)
Outline: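 GST-tagged human CDK2 and CycE from Sf9 cells, about 10 ng/ml, pre-incubated 15 min at 22 °C with compound in Tris/HCl pH 8.0 buffer. Reaction with 2 mM ATP and 0.75 µM biotinylated peptide for 25 min at 22 °C. Phospho-RB antibody TR-FRET (665/620 nm ratio) read after 1 h; data normalised to no-inhibitor and no-enzyme controls.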

[1] = test system: MDA-MB-231, human breast cancer cells; assay: Proliferation assay MDA-MB-231 (crystal violet, 4 days); assay type: cell-based; conditions: Homo sapiens, MDA-MB-231, 96 h, MDA-MB-231 cells, median, read-out: Prolif-MDA MB-231, IC50-[mol/l] (median)
Outline: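 Following a 24 h attachment in 10% fetal calf serum medium, cells receive test substance over 0.01-10 µmol/L for 4 days. Dye retained by fixed cells is eluted and read at 595 nm; cell number change is referenced to day-0 and untreated wells.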

[2] = test system: BRCA1 mRNA expression in MDA-MB-231 cells; assay: qRT-PCR assay: BRCA1 mRNA expression in MDA-MB-231; assay type: cell-based, human; conditions: Homo sapiens, MDA-MB-231, Inhibition of BRCA1 mRNA expression in MDA-MB-231 cells; median; read-out: RTqPCR-MDA-MB-231, IC50, BRCA1 (median)
Outline: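 GAPDH-normalised RT-qPCR measures the transcript after 24 h continuous compound treatment of cells seeded at 200,000/well one day earlier.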

Compound	pIC50 (CDK2/CycE)	pIC50 [1]	pIC50 [2]
Clc1cc2nc(CNc3nc(N4CCOCC4)nc4c(C5CC5)cnn34)[nH]c2cc1Cl [Example 301, 8-cyclopropyl-N-[(5,6-dichloro-1H-benzimidazol-2-yl)methyl]-2-(morpholin-4-yl)pyrazolo[1,5-a][1,3,5]triazin-4-amine]	< 4.70	8.11	8.17
CN[C@H]1CCN(c2nc(NCc3nc4ccccc4[nH]3)n3ncc(Br)c3n2)C1 [Example 252, N-[(1H-benzimidazol-2-yl)methyl]-8-bromo-2-[(3S)-3-(methylamino)pyrrolidin-1-yl]pyrazolo[1,5-a][1,3,5]triazin-4-amine]	4.88	7.51	7.99
c1ccc2[nH]c(CNc3nc(N4CCOCC4)nc4c(C5CCC5)cnn34)nc2c1 [Example 263, N-[(1H-benzimidazol-2-yl)methyl]-8-cyclobutyl-2-(morpholin-4-yl)pyrazolo[1,5-a][1,3,5]triazin-4-amine]	< 4.70	7.14	7.54
CN1CCN(c2nc(NCc3nc4cc(Cl)ccc4[nH]3)n3ncc(C(F)(F)F)c3n2)CC1 [Example 298, N-[(5-chloro-1H-benzimidazol-2-yl)methyl]-2-(4-methylpiperazin-1-yl)-8-(trifluoromethyl)pyrazolo[1,5-a][1,3,5]triazin-4-amine]	< 4.71	7.98	8.39
Brc1cnn2c(NCc3nc4ccccc4[nH]3)nc(N3C[C@H]4C[C@@H]3CN4)nc12 [Example 269, N-[(1H-benzimidazol-2-yl)methyl]-8-bromo-2-[(1R,4R)-2,5-diazabicyclo[2.2.1]heptan-2-yl]pyrazolo[1,5-a][1,3,5]triazin-4-amine]	5.32	7.53	8.08
Brc1cnn2c(NCc3nc4ccccc4[nH]3)nc(N3C[C@H]4CC[C@@H]3CN4)nc12 (single isomer, unassigned) [Example 316, N-[(1H-benzimidazol-2-yl)methyl]-8-bromo-2-{[1R or S-(1R*4R*)]-2,5-diazabicyclo[2.2.2]octan-2-yl}pyrazolo[1,5-a][1,3,5]triazin-4-amine]	6.55	7.64	7.91
N[C@@H]1CCN(c2nc(NCc3nc4ccccc4[nH]3)n3ncc(Br)c3n2)C1 [Example 250, 2-[(3R)-3-aminopyrrolidin-1-yl]-N-[(1H-benzimidazol-2-yl)methyl]-8-bromopyrazolo[1,5-a][1,3,5]triazin-4-amine]	4.89	7.46	7.98
NC12CC1CN(c1nc(NCc3nc4ccccc4[nH]3)n3ncc(Br)c3n1)C2 (stereo not drawn) [Example 258, 2-(1-amino-3-azabicyclo[3.1.0]hexan-3-yl)-N-(1H-benzimidazol-2-ylmethyl)-8-bromo-pyrazolo[1,5-a][1,3,5]triazin-4-amine]	5.51	7.26	7.92
Fc1cccc2[nH]c(CNc3nc(N4CCOCC4)nc4c(C(F)(F)F)cnn34)nc12 [Example 274, N-[(4-fluoro-1H-benzimidazol-2-yl)methyl]-2-(morpholin-4-yl)-8-(trifluoromethyl)pyrazolo[1,5-a][1,3,5]triazin-4-amine]	< 4.89	8.17	8.72
FC(F)(F)c1cnn2c(NCc3nc4cc(Cl)ccc4[nH]3)nc(N3CCOCC3)nc12 [Example 275, N-[(5-chloro-1H-benzimidazol-2-yl)methyl]-2-(morpholin-4-yl)-8-(trifluoromethyl)pyrazolo[1,5-a][1,3,5]triazin-4-amine]	< 4.70	8.41	8.70
CN(CC(C)(C)O)c1nc(NCc2nc3c(F)c(F)ccc3[nH]2)n2ncc(C3CC3)c2n1 [Example 292, 1-[(8-cyclopropyl-4-{[(4,5-difluoro-1H-benzimidazol-2-yl)methyl]amino}pyrazolo[1,5-a][1,3,5]triazin-2-yl)(methyl)amino]-2-methylpropan-2-ol]	< 5.28	8.15	8.55
NC1CCN(c2nc(NCc3nc4ccccc4[nH]3)n3ncc(Br)c3n2)CC1 [Example 256, 2-(4-aminopiperidin-1-yl)-N-[(1H-benzimidazol-2-yl)methyl]-8-bromopyrazolo[1,5-a][1,3,5]triazin-4-amine]	5.30	7.90	8.19
Fc1cccc2[nH]c(CNc3nc(N4C[C@H]5CC[C@@H](C4)N5)nc4c(C5CC5)cnn34)nc12 [Example 296, 8-cyclopropyl-2-[(1R,5S)-3,8-diazabicyclo[3.2.1]octan-3-yl]-N-[(4-fluoro-1H-benzimidazol-2-yl)methyl]pyrazolo[1,5-a][1,3,5]triazin-4-amine]	5.25	8.36	8.90
CN(CC1CC1)c1nc(NCc2nc3ccccc3[nH]2)n2ncc(Br)c2n1 [Example 287, N^4-[(1H-benzimidazol-2-yl)methyl]-8-bromo-N^2-(cyclopropylmethyl)-N^2-methylpyrazolo[1,5-a][1,3,5]triazine-2,4-diamine]	5.02	7.46	7.68
CNC1CCN(c2nc(NCc3nc4ccccc4[nH]3)n3ncc(Br)c3n2)CC1 [Example 272, N-[(1H-benzimidazol-2-yl)methyl]-8-bromo-2-[4-(methylamino)piperidin-1-yl]pyrazolo[1,5-a][1,3,5]triazin-4-amine]	4.79	7.56	8.10
CN(CC(C)(C)O)c1nc(NCc2nc3cc(F)c(Cl)cc3[nH]2)n2ncc(C3CC3)c2n1 [Example 317, 1-[(4-{[(6-chloro-5-fluoro-1H-benzimidazol-2-yl)methyl]amino}-8-cyclopropylpyrazolo[1,5-a][1,3,5]triazin-2-yl)(methyl)amino]-2-methylpropan-2-ol]	4.97	8.28	8.16
Fc1ccc2[nH]c(CNc3nc(N4CCOCC4)nc4c(C5CC5(F)F)cnn34)nc2c1F (stereo not drawn) [Example 278, N-[(4,5-difluoro-1H-benzimidazol-2-yl)methyl]-8-(2,2-difluorocyclopropyl)-2-(morpholin-4-yl)pyrazolo[1,5-a][1,3,5]triazin-4-amine]	< 4.70	7.76	8.41
Fc1ccc2[nH]c(CNc3nc(N4CCOCC4)nc4c([C@@H]5CC5(F)F)cnn34)nc2c1 (single isomer, unassigned) [Example 315, 8-[(1R or S)-2,2-difluorocyclopropyl]-N-[(5-fluoro-1H-benzimidazol-2-yl)methyl]-2-(morpholin-4-yl)pyrazolo[1,5-a][1,3,5]triazin-4-amine]	< 4.70	7.06	7.12
Brc1cnn2c(NCc3nc4ccccc4[nH]3)nc(N3CCC4(CCN4)CC3)nc12 [Example 291, N-[(1H-benzimidazol-2-yl)methyl]-8-bromo-2-(1,7-diazaspiro[3.5]nonan-7-yl)pyrazolo[1,5-a][1,3,5]triazin-4-amine]	5.39	7.23	7.82
Fc1cc2nc(CNc3nc(N4CCOCC4)nc4c(C5CC5)cnn34)[nH]c2cc1Cl [Example 307, N-[(6-chloro-5-fluoro-1H-benzimidazol-2-yl)methyl]-8-cyclopropyl-2-(morpholin-4-yl)pyrazolo[1,5-a][1,3,5]triazin-4-amine]	< 4.70	8.30	8.09
Brc1cnn2c(NCc3nc4c([nH]3)CCCC4)nc(N3CCOCC3)nc12 [Example 21, 8-bromo-2-(morpholin-4-yl)-N-[(4,5,6,7-tetrahydro-1H-benzimidazol-2-yl)methyl]pyrazolo[1,5-a][1,3,5]triazin-4-amine]	5.68	6.55	7.50
N[C@@H]1[C@@H]2C[C@H]1CN(c1nc(NCc3nc4ccccc4[nH]3)n3ncc(Br)c3n1)C2 [Example 289, 2-[(1R,5S,6s)-6-amino-3-azabicyclo[3.1.1]heptan-3-yl]-N-[(1H-benzimidazol-2-yl)methyl]-8-bromopyrazolo[1,5-a][1,3,5]triazin-4-amine]	5.28	7.99	8.54
N[C@H]1CCN(c2nc(NCc3nc4ccccc4[nH]3)n3ncc(Br)c3n2)C1 [Example 245, 2-[(3S)-3-aminopyrrolidin-1-yl]-N-[(1H-benzimidazol-2-yl)methyl]-8-bromopyrazolo[1,5-a][1,3,5]triazin-4-amine]	5.30	7.84	8.13
CC1(N)CCN(c2nc(NCc3nc4ccccc4[nH]3)n3ncc(Br)c3n2)CC1 [Example 290, 2-(4-amino-4-methylpiperidin-1-yl)-N-[(1H-benzimidazol-2-yl)methyl]-8-bromopyrazolo[1,5-a][1,3,5]triazin-4-amine]	5.14	7.19	7.75
